Data: the pKa sets of Baltruschat and Czodrowski (2020)

settings: acidic group

SMILES | pKa
CSc1ccc(O)cc1 | 9.5
CCc1cc2c(C)cc(=O)oc2cc1O | 8.01
[O-][n+]1ccc(O)cc1 | 5.76
CC(C)(C)N(O)C(=O)c1ccccc1 | 10.1
NC(=O)Nc1[nH]cnc1C(=O)[O-] | 12.2
O=[PH]([O-])C(NCc1ccncc1)c1ccccc1O (centres undefined) | 11.9
Oc1ccc2c(c1)CCCC2 | 10.3
CC[NH+](CC)Cc1cccc(F)c1O | 7.26
CC(P)C(=O)O (centres undefined) | 4.15
COc1ccc(NC(=S)c2cccc(Br)c2)cc1 | 11
Oc1cc2ccccc2n[nH+]1 | 0.21
Cc1cc(C)c(O)c(C)c1 | 10.9
Cc1cc(C#N)cc(C)[n+]1O | -0.61
CC(C)(C)c1cc([N+](=O)[O-])cc(C(C)(C)C)c1O | 6.92
O=C(Cc1ccccn1)c1ccccc1 | 13.3
Cc1ccc(C)c(C(=O)C(=O)O)c1 | 1.45
N#Cc1ccc(CC(C#N)C#N)cc1 | 11
CONC(=O)c1ccccc1 | 8.89
Ic1nnn[nH]1 | 2.85
COc1cccc(C(=O)O)c1C | 3.72
[O-]c1c(O)cccc1O | 11.2
O=c1cc(-c2ccccc2O)oc2ccccc12 | 8.85
CCOC(=O)COc1ccc(C(=O)c2ccc(O)c(C[NH3+])c2)cc1 | 7.34
NC(=O)c1ccccc1O | 8.61

SMILES | pKa
CCCCc1c(O)nc(NCC)[nH+]c1C | 5.04
O=[N+]([O-])c1ccc(O)c(C[NH+]2CCCCC2)c1 | 5.88
CCCc1ncnc2c(O)cccc12 | 8.82
Cc1cc(C)c(C(C)C)cc1O | 10.8
C=CC[NH+](CC=C)CCCNC(=O)/C=N/O | 8.14
O=C(NCO)c1ccccc1 | 13.1
O=C(O)COc1ccccc1[N+](=O)[O-] | 2.9
Cc1cc(O)ccc1[N+](C)(C)C | 8.34
c1c[nH]cn1 | 14.5
CC[NH+](CC)Cc1cc(Cl)cc(Cl)c1O | 5.95
C[Si](C)(C)CCC(=O)O | 4.91
CCCCCCc1c(-c2ccccc2)n[nH]c1O | 8.6
C[N+](C)(C)Cc1cccc(O)c1 | 8.89
O=C([O-])c1cc(O)c(O)c(C(=O)[O-])[o+]1 | 9.82
O=C([O-])/C=C/C(=O)CC(=O)CC(=O)[O-] | 8.4
O=S(=O)(NBr)c1ccccc1 | 4.95
O=c1cc(-c2cccc(O)c2)oc2ccccc12 | 9.75
O=C([O-])[C@@H]1CC[C@@H](C(=O)O)[Se][Se]1 | 3.67
[NH3+][C@@H](Cc1c[nH]c[nH+]1)C(=O)NCC(=O)O | 2.4
Nc1nc(O)[nH+]c2nc[nH]c12 | 4.51
O/N=C(/NO)c1ccccc1 | 10.7
CC(=O)c1ccc([N+](=O)[O-])cc1C(=O)O | 3.27
O=[N+]([O-])c1cc(Cl)ccc1[Se]O | 10.2
O=C1O[C@@H]([C@H](O)CO)C([O-])=C1O | 11.6

SMILES | pKa
O=C([O-])C[NH+](CCNS(=O)(=O)c1ccc(CCBr)cc1)CC(=O)[O-] | 7.75
[NH3+]C(CCc1ccc([N+](=O)[O-])cc1)C(=O)O (centres undefined) | 3.05
COc1ccccc1/C=N/O | 10.9
CN(C)c1cc[n+](O)cc1 | 3.9
[NH3+]CCC(=O)N[C@@H](Cc1c[nH+]c[nH]1)C(=O)O | 2.63
Cc1c[nH]c(C(=O)O)c1 | 4.6
O=C(O)c1cc2ccccc2s1 | 3.1
On1nnc2ccc(Br)cc21 | 3.97
COc1ccc(O)cc1[N+](=O)[O-] | 8.68
Cc1c(Cc2c(C)n(C)[n+](-c3ccccc3)c2O)c(=O)n(-c2ccccc2)n1C | 1.51
[NH3+]CCCCCCCCCCC(=O)O | 4.62
CCC[NH+](CCC)CCCNC(=O)/C=N/O | 8.73
O=C1NC(=O)C(=NO)C(=O)N1 | 4.58
O=C(O)[C@H](O)c1ccc([N+](=O)[O-])cc1 | 2.99
C[NH2+]C(C)C(=O)O (centres undefined) | 2.22
Cc1cccc2ccc(O)cc12 | 9.42
COc1ccc(C(=O)O)c(C)c1 | 4.54
O=C1c2ccccc2C(=O)C1Cc1ccccc1 | 5.9
CC1(C)NC(=S)NC1=S | 7.65
O=C1OCC(O)=C1O | 4.4
COc1cnc[nH+]c1O | 1.75
CN(C)c1cccc2c(S(=O)(=O)NCC(=O)O)cccc12 | 4.4

same assay, conditions: basic group

SMILES | pKa
COc1cc(OC)c(OC)c(C(=O)N[C@H]2C[C@H]3CC[C@@H](C2)N3Cc2ccccc2)c1 | 8.84
CC(=O)N(C)c1ccccn1 | 2.01
NCCc1ccc([N+](=O)[O-])cc1 | 9.42
CCNNC | 7.5
CCOc1cccc(C(=O)N[C@@H]2C[C@H]3CC[C@@H](C2)N3Cc2ccccc2)c1OC | 8.78
CN(C)CCCN | 10
c1cc2nccnc2cn1 | 2.5
[NH3+]CCNCCO | 6.66
C1CSCN1 | 6.31
NC(=O)Nc1[nH]cnc1C(=O)[O-] | 4.9
CCNCCN | 10.5
CCCCCCCCCCCCCCCCCCN | 10.6
COc1cccc2c1CN(C1CC3CCC(C1)N3Cc1ccccc1)C2=O (centres undefined) | 8.68
CCOCCn1c(CN2CC[NH+](CCCCn3cccn3)CC2)nc2ccccc21 | 4.8
